# In patent US8288410B2, “3-substituted quinolinium and 7H-indolo[2,3-c]quinolinium salts as new antiinfectives” (Florida Agricultural and Mechanical University, priority 2008, dated 2012):
# Legend:
# [1] = test system: Cryptococcus neoformans ATCC 90113; assay: Antifungal susceptibility testing, Cryptococcus neoformans; type: cell-based
# Method: (§1) Using standard susceptibility tests, the compounds of the invention were determined to be active against MRSA, C. neoformans and several other bacteria, fungi and protozoa. More specifically, the antibacterial and antifungal testing was carried out in the following manner. Cryptococcus neoformans ATCC 90113 and MRSA were obtained from the American Type Culture Collection (Manassas. Va.). Several others including Candida albicans ATTC 90028, Aspergillus fumigatus ATCC 90906 and Mycobacterium intracellulare (M. intracellulare) ATCC 23086 were also procured. Susceptibility testing was performed using a modified version of the National Committee for Clinical Laboratory Standards method. M. intracellulare was tested using a modified method of Franzblau, et al., J. Clin. Microbiol., 1998, 36, 362-366. DMSO solutions of samples were serially diluted in saline, and transferred in duplicate to 96 well microplates. Microbial suspensions were diluted in the broth to afford desired colony forming units/mL according to the 0.5 McFarland Standard [C. Albicans: either Saboraud Dextrose broth (SDB) or RPMI 1640, C. neoformans: SDB, A fumigatus: either YM broth (for MICS) or RPMI-1640+5% Alamar Blue.] After adding microbial cultures to the sampled afforded a final volume of 200 μL and final test concentration starting with 20 μg/mL, plates were read prior to and after final incubation using either fluorescence at 544ex/590em (M intracellulare, A. fumigatus) using the Polarstar galaxy reader (Biotek Instruments, Vermont). Growth (saline only), solvent and blank (media only) controls were included on each test plate. Drug controls [Ciprofloxacin (ICN Biomedicals, Ohio) for bacteria and Amphotericin B (ICN Biomedicals, Ohio) for fungi] were included in each assay. Percent growth was calculated and plotted versus test concentration to afford IC50 (sample concentration that affords 50% inhibition or growth of the organism). The minimum inhibitory concentration (MIC) was determined by visually inspecting the plate, and is defined as the lowest test concentration that allows no detectable growth (for Almar Blue assays, no color change from blue to pink).
# [2] = test system: Aspergillus fumigatus ATCC 90906; assay: Antifungal susceptibility testing, Aspergillus fumigatus; type: cell-based; details: Aspergillus fumigatus
# Method: as §1
# MRSA = assay: Antibacterial susceptibility testing, MRSA; type: cell-based, methicillin resistant Staphylococcus aureus; details: for MRS IC50 / MRS MFC / MRS MIC: Table 1; for MRSA IC50 / MRSA MFC / MRSA MIC: Table 2
# Method: as §1
# [3] = test system: Candida albicans ATTC 90028; assay: Antifungal susceptibility testing, Candida albicans; type: cell-based
# Method: as §1
SMILES,Cn IC50 ([1]; Table 1),Cn MFC ([1]; Table 1),Cn MIC ([1]; Table 1),A fu IC50 ([2]; Table 1),A fu MFC ([2]; Table 1),A fu MIC ([2]; Table 1),MRS IC50 (MRSA),MRS MFC (MRSA),MRS MIC (MRSA),Ca IC50 ([3]; Table 1),Ca MFC ([3]; Table 1),Ca MIC ([3]; Table 1),also measured
Brc1ccccc1Sc1cc2ccccc2[n+](CCCCCc2ccccc2)c1.[I-] [XYZ-III-85],1.5 µg/mL,10 µg/mL,5.0 µg/mL,0.50 µg/mL,— ((-) = >20 μg/mL),5.0 µg/mL,0.95 µg/mL,10 µg/mL,2.5 µg/mL,20 µg/mL,— ((-) = >20 μg/mL),— ((-) = >20 μg/mL),
[I-].[O-][S+](c1ccccc1)c1cc2ccccc2[n+](CCCCCc2ccccc2)c1 (stereo not shown) [XYZ-IV-79],,— ((-) = >20 μg/mL),— ((-) = >20 μg/mL),— ((-) = >20 μg/mL),— ((-) = >20 μg/mL),— ((-) = >20 μg/mL),1.5 µg/mL,— ((-) = >20 μg/mL),5.0 µg/mL,— ((-) = >20 μg/mL),— ((-) = >20 μg/mL),— ((-) = >20 μg/mL),
COc1ccc(Sc2cc3ccccc3[n+](C)c2)cc1.[I-] [XYZ-III-71],— ((-) = >20 μg/mL),— ((-) = >20 μg/mL),— ((-) = >20 μg/mL),— ((-) = >20 μg/mL),— ((-) = >20 μg/mL),— ((-) = >20 μg/mL),— ((-) = >20 μg/mL),— ((-) = >20 μg/mL),— ((-) = >20 μg/mL),— ((-) = >20 μg/mL),— ((-) = >20 μg/mL),— ((-) = >20 μg/mL),
[I-].[O-][S+](c1cc2ccccc2[n+](CCCCCc2ccccc2)c1)c1ccccc1C(F)(F)F (stereo not shown) [XYZ-IV-90],5.5 µg/mL,— ((-) = >20 μg/mL),20 µg/mL,— ((-) = >20 μg/mL),— ((-) = >20 μg/mL),— ((-) = >20 μg/mL),0.25 µg/mL,10 µg/mL,0.63 µg/mL,15 µg/mL,— ((-) = >20 μg/mL),— ((-) = >20 μg/mL),
Fc1ccccc1Sc1cc2ccccc2[n+](CCCCCc2ccccc2)c1.[I-] [XYZ-IV-19],0.25 µg/mL,2.5 µg/mL,0.63 µg/mL,0.20 µg/mL,— ((-) = >20 μg/mL),0.31 µg/mL,0.40 µg/mL,5.0 µg/mL,0.63 µg/mL,2.5 µg/mL,20 µg/mL,10 µg/mL,
[I-].[O-][S+](c1cc2ccccc2[n+](CCCCCc2ccccc2)c1)c1ccccc1Br (stereo not shown) [XYZ-IV-98],5.5 µg/mL,— ((-) = >20 μg/mL),20 µg/mL,15 µg/mL,— ((-) = >20 μg/mL),— ((-) = >20 μg/mL),0.35 µg/mL,— ((-) = >20 μg/mL),1.3 µg/mL,— ((-) = >20 μg/mL),— ((-) = >20 μg/mL),— ((-) = >20 μg/mL),
Fc1cccc(Sc2cc3ccccc3[n+](CCCCCc3ccccc3)c2)c1.[I-] [XYZ-IV-21],0.40 µg/mL,2.5 µg/mL,0.63 µg/mL,0.10 µg/mL,— ((-) = >20 μg/mL),0.16 µg/mL,0.20 µg/mL,20 µg/mL,0.63 µg/mL,3.0 µg/mL,20 µg/mL,10 µg/mL,
COc1ccc(Sc2cc3ccccc3[n+](CCCCCc3ccccc3)c2)cc1.[I-] [XYZ-III-72],9.5 µg/mL,— ((-) = >20 μg/mL),20 µg/mL,3.5 µg/mL,— ((-) = >20 μg/mL),10 µg/mL,2.0 µg/mL,10 µg/mL,5.0 µg/mL,— ((-) = >20 μg/mL),— ((-) = >20 μg/mL),— ((-) = >20 μg/mL),
[I-].c1ccc(CCCCC[n+]2cc(Sc3ccccc3)cc3ccccc32)cc1 [XYZ-III-54],,10 µg/mL,5.0 µg/mL,1.3 µg/mL,— ((-) = >20 μg/mL),,1.0 µg/mL,10 µg/mL,2.5 µg/mL,5.5 µg/mL,— ((-) = >20 μg/mL),10 µg/mL,
[I-].c1ccc(CCCCC[n+]2cc(Oc3ccccc3)cc3ccccc32)cc1 [XYZ-III-83],— ((-) = >20 μg/mL),— ((-) = >20 μg/mL),— ((-) = >20 μg/mL),2.0 µg/mL,— ((-) = >20 μg/mL),— ((-) = >20 μg/mL),15 µg/mL,— ((-) = >20 μg/mL),20 µg/mL,— ((-) = >20 μg/mL),— ((-) = >20 μg/mL),— ((-) = >20 μg/mL),
COc1ccc(Nc2cc3ccccc3[n+](CCCCCC3CCCCC3)c2)cc1.[I-] [JRE-3-45-1],,,,,,,,,,,,,Cn IC50 ([1]; Table 2): — ((-) = >20 μg/mL); Cn MFC ([1]; Table 2): — ((-) = >20 μg/mL); Cn MIC ([1]; Table 2): — ((-) = >20 μg/mL); A fu IC50 ([2]; Table 2): — ((-) = >20 μg/mL); MRSA IC50 (MRSA): — ((-) = >20 μg/mL); MRSA MFC (MRSA): — ((-) = >20 μg/mL); MRSA MIC (MRSA): — ((-) = >20 μg/mL); Ca IC50 ([3]; Table 2): — ((-) = >20 μg/mL); Ca MFC ([3]; Table 2): — ((-) = >20 μg/mL); Ca MIC ([3]; Table 2): — ((-) = >20 μg/mL)
[I-].[O-][S+](c1cc2ccccc2[n+](CCCCCc2ccccc2)c1)c1ccccc1F (stereo not shown) [XYZ-IV-100],,— ((-) = >20 μg/mL),— ((-) = >20 μg/mL),— ((-) = >20 μg/mL),— ((-) = >20 μg/mL),— ((-) = >20 μg/mL),1.5 µg/mL,— ((-) = >20 μg/mL),5.0 µg/mL,— ((-) = >20 μg/mL),— ((-) = >20 μg/mL),— ((-) = >20 μg/mL),
C[n+]1cc(Sc2ccc(F)cc2)cc2ccccc21.[I-] [XYZ-III-62],— ((-) = >20 μg/mL),— ((-) = >20 μg/mL),— ((-) = >20 μg/mL),— ((-) = >20 μg/mL),— ((-) = >20 μg/mL),— ((-) = >20 μg/mL),— ((-) = >20 μg/mL),— ((-) = >20 μg/mL),— ((-) = >20 μg/mL),— ((-) = >20 μg/mL),— ((-) = >20 μg/mL),— ((-) = >20 μg/mL),
[I-].[O-][S+](c1cccc(C(F)(F)F)c1)c1cc2ccccc2[n+](CCCCCc2ccccc2)c1 (stereo not shown) [XYZ-IV-87],6.5 µg/mL,20 µg/mL,20 µg/mL,— ((-) = >20 μg/mL),— ((-) = >20 μg/mL),— ((-) = >20 μg/mL),0.25 µg/mL,20 µg/mL,1.3 µg/mL,— ((-) = >20 μg/mL),— ((-) = >20 μg/mL),— ((-) = >20 μg/mL),
C[n+]1cc(Nc2ccccc2Cl)cc2ccccc21.[I-] [JRE-2-42-1],,,,,,,,,,,,,Cn IC50 ([1]; Table 2): — ((-) = >20 μg/mL); Cn MFC ([1]; Table 2): — ((-) = >20 μg/mL); Cn MIC ([1]; Table 2): — ((-) = >20 μg/mL); A fu IC50 ([2]; Table 2): — ((-) = >20 μg/mL); MRSA IC50 (MRSA): — ((-) = >20 μg/mL); MRSA MFC (MRSA): — ((-) = >20 μg/mL); MRSA MIC (MRSA): — ((-) = >20 μg/mL); Ca IC50 ([3]; Table 2): — ((-) = >20 μg/mL); Ca MFC ([3]; Table 2): — ((-) = >20 μg/mL); Ca MIC ([3]; Table 2): — ((-) = >20 μg/mL)
COc1ccc([S+]([O-])c2cc3ccccc3[n+](CCCCCc3ccccc3)c2)cc1.[I-] (stereo not shown) [XYZ-V-21],— ((-) = >20 μg/mL),— ((-) = >20 μg/mL),— ((-) = >20 μg/mL),— ((-) = >20 μg/mL),— ((-) = >20 μg/mL),— ((-) = >20 μg/mL),7.00 µg/mL,— ((-) = >20 μg/mL),20 µg/mL,— ((-) = >20 μg/mL),— ((-) = >20 μg/mL),— ((-) = >20 μg/mL),
